Experimental data taken from ChEMBL document CHEMBL4229566, “Discovery of ( S)-3-(3-(3,5-Dimethyl-1 H-pyrazol-1-yl)phenyl)-4-(( R)-3-(2-(5,6,7,8-tetrahydro-1,8-naphthyridin-2-yl)ethyl)pyrrolidin-1-yl)butanoic Acid, a Nonpeptidic αvβ6 Integrin Inhibitor for the Inhaled Treatment of Idiopathic Pulmonary Fibrosis” (J Med Chem, 2018).

Assays:
Integrin alpha-V/beta-6 [1] = molecular target: T1, Integrin alpha-V/beta-6 (Homo sapiens, UniProt P06756+P18564)
Description: Binding affinity to human integrin alphaVbeta6 assessed as dissociation half life up to 48 hrs by liquid scintillation counting

Integrin alpha-V/beta-6 [2] = molecular target: T1, Integrin alpha-V/beta-6; remark: listed apart in the source
Target sequence in this assay (P06756 31-889 limits assumed): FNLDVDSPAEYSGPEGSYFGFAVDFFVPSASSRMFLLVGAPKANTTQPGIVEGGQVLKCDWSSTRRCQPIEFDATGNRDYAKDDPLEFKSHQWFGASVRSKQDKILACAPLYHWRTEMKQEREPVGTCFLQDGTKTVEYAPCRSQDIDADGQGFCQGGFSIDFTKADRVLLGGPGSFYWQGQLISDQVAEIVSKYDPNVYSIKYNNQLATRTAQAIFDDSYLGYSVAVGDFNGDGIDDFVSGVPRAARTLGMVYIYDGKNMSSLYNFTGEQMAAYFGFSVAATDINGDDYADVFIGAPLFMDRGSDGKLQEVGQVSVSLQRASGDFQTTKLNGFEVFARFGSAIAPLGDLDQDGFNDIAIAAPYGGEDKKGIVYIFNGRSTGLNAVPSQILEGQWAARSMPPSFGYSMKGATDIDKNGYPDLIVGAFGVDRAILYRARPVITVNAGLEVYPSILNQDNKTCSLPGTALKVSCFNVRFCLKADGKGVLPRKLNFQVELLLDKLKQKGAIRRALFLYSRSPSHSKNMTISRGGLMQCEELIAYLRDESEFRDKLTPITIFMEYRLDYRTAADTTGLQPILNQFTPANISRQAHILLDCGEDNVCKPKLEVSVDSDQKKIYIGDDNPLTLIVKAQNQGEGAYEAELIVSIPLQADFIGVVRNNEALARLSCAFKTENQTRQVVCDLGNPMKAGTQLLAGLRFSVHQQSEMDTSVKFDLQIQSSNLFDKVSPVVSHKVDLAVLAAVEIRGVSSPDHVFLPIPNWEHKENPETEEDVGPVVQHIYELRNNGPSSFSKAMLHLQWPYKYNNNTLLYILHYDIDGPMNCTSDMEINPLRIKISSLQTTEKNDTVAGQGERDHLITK
Target sequence in this assay (P06756 891-1048 limits assumed): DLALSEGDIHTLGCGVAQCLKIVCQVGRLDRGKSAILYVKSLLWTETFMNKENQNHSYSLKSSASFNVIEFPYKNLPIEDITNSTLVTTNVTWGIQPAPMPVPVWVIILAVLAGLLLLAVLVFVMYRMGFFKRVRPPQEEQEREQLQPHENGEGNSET
Target sequence in this assay (P18564 22-788 limits assumed): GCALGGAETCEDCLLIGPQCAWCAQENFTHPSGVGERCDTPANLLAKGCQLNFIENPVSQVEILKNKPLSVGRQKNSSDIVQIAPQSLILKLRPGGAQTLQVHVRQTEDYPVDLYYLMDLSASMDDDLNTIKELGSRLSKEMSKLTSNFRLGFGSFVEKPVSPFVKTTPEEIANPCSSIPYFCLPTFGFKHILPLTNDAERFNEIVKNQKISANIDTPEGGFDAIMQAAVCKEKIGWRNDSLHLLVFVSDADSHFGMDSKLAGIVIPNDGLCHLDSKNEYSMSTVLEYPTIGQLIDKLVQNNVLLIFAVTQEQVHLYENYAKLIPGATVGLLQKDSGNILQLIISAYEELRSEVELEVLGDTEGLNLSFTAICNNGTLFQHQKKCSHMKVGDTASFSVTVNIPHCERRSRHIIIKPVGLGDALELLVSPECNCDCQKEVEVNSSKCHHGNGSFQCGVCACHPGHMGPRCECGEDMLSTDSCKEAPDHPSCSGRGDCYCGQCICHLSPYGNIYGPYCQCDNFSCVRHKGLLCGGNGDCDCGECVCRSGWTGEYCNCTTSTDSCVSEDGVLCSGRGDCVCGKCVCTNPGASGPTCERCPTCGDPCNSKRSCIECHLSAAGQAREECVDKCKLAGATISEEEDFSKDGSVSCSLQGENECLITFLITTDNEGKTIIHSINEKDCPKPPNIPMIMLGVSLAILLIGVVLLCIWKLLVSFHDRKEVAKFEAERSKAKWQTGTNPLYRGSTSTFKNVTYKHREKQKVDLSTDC

[3] = molecular target: T2, Voltage-gated inwardly rectifying potassium channel KCNH2 (Homo sapiens, UniProt Q12809)
Description: Inhibition of human ERG expressed in HEK293 cells by Q-patch assay

physchem = details: buffer, pH 7.4, logD
[4] = molecular target: T2, Voltage-gated inwardly rectifying potassium channel KCNH2; remark: listed apart in the source
Description: Inhibition of human ERG expressed in HEK293 cells by Barracuda automated patch clamp assay

[5] = Protein binding in human blood at 1 ug/ml after 4 hrs by LC-MS/MS analysis; type: ADME, tissue-based; details: at 1 µg/mL, read-out: PB (converted)
[6] = Toxicity in rabbit cardiac ventricular wedge assessed as increase in QT interval prolongation at 1 to 3 uM; type: tissue-based, Oryctolagus cuniculus, Cardiac ventricle

T2 sequence (Q12809 whole entry): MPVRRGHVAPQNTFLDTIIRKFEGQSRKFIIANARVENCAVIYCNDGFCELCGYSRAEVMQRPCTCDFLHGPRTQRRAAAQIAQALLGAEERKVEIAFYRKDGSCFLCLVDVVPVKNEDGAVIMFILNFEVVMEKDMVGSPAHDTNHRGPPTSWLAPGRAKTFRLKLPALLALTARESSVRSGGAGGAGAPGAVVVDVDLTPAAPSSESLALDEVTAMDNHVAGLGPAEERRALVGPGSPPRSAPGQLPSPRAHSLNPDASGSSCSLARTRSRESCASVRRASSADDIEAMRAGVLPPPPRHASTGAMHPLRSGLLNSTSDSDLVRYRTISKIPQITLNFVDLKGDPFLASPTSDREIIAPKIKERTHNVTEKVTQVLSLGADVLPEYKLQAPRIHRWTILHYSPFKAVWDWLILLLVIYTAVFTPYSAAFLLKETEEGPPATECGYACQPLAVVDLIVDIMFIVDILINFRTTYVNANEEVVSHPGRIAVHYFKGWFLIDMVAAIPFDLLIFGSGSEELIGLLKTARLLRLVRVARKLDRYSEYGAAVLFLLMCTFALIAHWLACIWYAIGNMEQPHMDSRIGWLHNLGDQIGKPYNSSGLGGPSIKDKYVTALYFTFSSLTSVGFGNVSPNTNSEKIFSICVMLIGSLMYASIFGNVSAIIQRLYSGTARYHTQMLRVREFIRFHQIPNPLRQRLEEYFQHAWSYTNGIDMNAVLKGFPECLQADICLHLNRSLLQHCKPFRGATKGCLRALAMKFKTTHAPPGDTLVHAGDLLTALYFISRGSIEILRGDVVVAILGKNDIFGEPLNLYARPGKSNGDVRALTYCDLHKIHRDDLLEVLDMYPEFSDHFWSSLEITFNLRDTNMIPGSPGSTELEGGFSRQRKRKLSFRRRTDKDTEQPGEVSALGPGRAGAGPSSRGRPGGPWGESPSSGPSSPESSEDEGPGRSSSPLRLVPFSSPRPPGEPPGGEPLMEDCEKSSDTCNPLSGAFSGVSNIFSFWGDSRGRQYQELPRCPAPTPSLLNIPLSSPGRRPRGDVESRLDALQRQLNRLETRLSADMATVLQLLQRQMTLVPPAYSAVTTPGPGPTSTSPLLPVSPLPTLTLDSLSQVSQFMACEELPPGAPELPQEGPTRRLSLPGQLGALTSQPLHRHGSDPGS

Row | logD (physchem) | Compound | IC50 [3] [µM] | IC50 [4] [µM] | also measured
1 |  | N=C(N)Nc1cccc(C(=O)NCC(=O)NC(CC(=O)O)c2cc(Cl)cc(Cl)c2)c1 (centres undefined) |  |  | T1/2 (Integrin alpha-V/beta-6 [1]): 5 min; Ki (Integrin alpha-V/beta-6 [2]): 0.002 µM
2 | 2.07 | O=C(O)C[C@H](CN1CC[C@@H](CCc2ccc3c(n2)NCCC3)C1)c1cccc(OC2COC2)c1 | > 31.6 | > 50.1 | 
3 | 1.66 | Cc1nc(C)n(-c2cccc([C@H](CC(=O)O)CN3CC[C@@H](CCc4ccc5c(n4)NCCC5)C3)c2)n1 | > 31.6 | > 50.1 | 
4 | 1.77 | Cc1nncn1-c1cccc([C@H](CC(=O)O)CN2CC[C@@H](CCc3ccc4c(n3)NCCC4)C2)c1 | > 31.6 |  | 
5 | 2.62 | O=C(O)C[C@H](CN1CC[C@@H](CCc2ccc3c(n2)NCCC3)C1)c1cccc(C2CCOCC2)c1 |  |  | 
6 | 2.27 | O=C(O)C[C@H](CN1CC[C@@H](CCc2ccc3c(n2)NCCC3)C1)c1cccc(N2CCOCC2)c1 |  |  | 
7 | 2.53 | Cc1cc(-c2cccc([C@H](CC(=O)O)CN3CC[C@@H](CCc4ccc5c(n4)NCCC5)C3)c2)[nH]n1 | 25.1 | > 50.1 | 
8 | 1.75 | O=C(O)C[C@H](CN1CC[C@@H](CCc2ccc3c(n2)NCCC3)C1)c1cccc(-n2ccnn2)c1 | > 31.6 | > 50.1 | fraction unbound at 4 h, 1 ug/ml [5]: 0.28
9 | 3.15 | O=C(O)C[C@H](CN1CC[C@@H](CCc2ccc3c(n2)NCCC3)C1)c1cccc(Br)c1 |  | 1.26 | 
10 | 2.73 | Cc1cc(C)n(-c2cc([C@H](CC(=O)O)CN3CC[C@@H](CCc4ccc5c(n4)NCCC5)C3)cc(N3CCOCC3)c2)n1 |  | > 63.1 | 
11 |  | O=C(O)C[C@H](CN1CC[C@@H](CCc2ccc3c(n2)NCCC3)C1)c1cccc(C2CC2)c1 |  |  | Activity [6]: Dose-dependent effect
12 |  | Cc1ccnn1-c1cccc([C@H](CC(=O)O)CN2CC[C@@H](CCc3ccc4c(n3)NCCC4)C2)c1 |  |  | fraction unbound at 4 h, 1 ug/ml [5]: 0.1
13 | 1.95 | O=C(O)C[C@H](CN1CC[C@@H](CCc2ccc3c(n2)NCCC3)C1)c1cccc(-n2cncn2)c1 | > 31.6 | > 50.1 | fraction unbound at 4 h, 1 ug/ml [5]: 0.4
